Source: patent publication US20220305015A1, “COMBINATORIAL THERAPY TARGETING PARP1 AND RTK” (Board of Regents, The University of Texas System, priority 2019, published 2022)

Legend:
FGFR3 = biological target: T1, FGFR3 (Homo sapiens, UniProt P22607); experiment: Western blot of FGFR phosphorylation in cells treated with MMS and talazoparib; type: cell-based; conditions: BR# 09 and BR# 17 cells; 5 μM FGFRi
T1 construct: endogenous in cells; host or cells: SUM149 parental cells and SUM149-derived talazoparib-resistant BR cells (BR#09, BR#17)
Experimental: (FIG. 8B) BR# 17 cells were treated with 250 nM talazoparib and 0.01% MMS and FGFRi for 1 hour before being fixed and subjected to immunofluorescence staining with antibodies against FGFR3 (TexasRed, red) and yH2AX (FITC, green).

BR# 17 cells [1] = experiment: BR# 17 orthotopic xenograft mouse model; type: in vivo, mice; conditions: BR# 17 model; oral gavage daily; olaparib 40, AZD4547 8, talazoparib 0.25, PD173074 15 mg/kg per day
Experimental: (§1) Animal studies were performed following a protocol approved by The University of Texas MD Anderson Cancer Center Institutional Animal Care and Use Committee. Female nude mice were purchased from the Department of Experimental Radiation Oncology at MD Anderson. For BR# 09 and BR# 17 xenograft mouse models, two million cells were mixed with 50% (v/v) growth factor reduced Matrigel matrix (Corning) and inoculated into the mammary fat pads of 6- to 8-week-old female nude mice. For the 4T1 model, female Balb/c mice were purchased from Jackson Laboratory. A total of 50,000 4T1 cells were mixed with Matrigel matrix and inoculated into the mammary fat pad of 6-week-old female Balb/c mice. Inhibitors were dissolved in vehicle solvent containing 10% dimethylacetamide (Sigma-Aldrich), 5% Kolliphor HS 15 (Sigma-Aldrich), and 85% phosphate-buffered saline (Evans et al., 2017). […] Treatment with inhibitors started when tumor volumes reached a mean of 120 mm^3. Mice were treated using oral gavage daily for 20 days followed by 3 days with no drugs to prevent severe weight loss. After the first cycle, treatment was continued on a schedule of 6 days on and 1 day off. Mouse weight and tumor volume were measured three times every week. Tumor volume was estimated using the following formula: volume (mm^3) =length (mm)×width (mm)×0.5 width (mm), where length is the longest axis of the tumor. Mice were euthanized using CO2 when the tumor volume reached 2,000 mm^3. For the blood chemical test, mouse cardiac blood was collected by veterinarians in the Department of Veterinary Medicine and Surgery at MD Anderson after 16 days of treatment. Concentrations of alanine aminotransferase, aspartate aminotransferase, and blood urea nitrogen in Balb/c mice were referred to North American colonies of Charles River Balb/c mice.

BR# 17 cells [2] = experiment: yH2AX foci immunofluorescence staining after MMS; type: cell-based; conditions: after MMS removal
Experimental: FIGS. 2A-2C: Inhibition of FGFR3 decreases DNA damage repair. (FIG. 2A) SUM149-derived talazoparib-resistant (BR)# 17 cells were treated for 1 hour with methyl methanesulfonate (MMS), talazoparib (Tala), and PD173074 (PD) as indicated. After MMS removal, cells were cultured for the indicated time before immunofluorescence staining. Representative images of yH2AX (green) and DNA (blue) are shown. […] (FIG. 2B) For comet assay analysis, BR# 09 cells were incubated for another 3 hours after MMS removal. DNA damage was normalized to that of the talazoparib-treated group. Mean ±standard deviation is shown (n >100). (FIG. 2C) Combination index (CI) of talazoparib and PD173074 in BR cells, measured by colony formation assay. Analysis of variance was used for statistical comparisons.
Immunofluorescence staining and confocal microscopy were performed as previously described (Chen, et al., 2019). Cells were treated with DMSO (solvent control), talazoparib (125 nM for BR# 09; 250 nM for BR# 17), PD173074 (10 μM), or the combination of talazoparib and PD173074 for the time indicated. […] In both immunostaining and the proximity ligation assay, images of the cells were captured and analyzed with an LSM 710 laser confocal microscope and Zeiss Zen software (Carl Zeiss) and foci counting was performed using BlobFinder (Allalou and Wahlby, 2020).

PARP1 = biological target: T2, PARP1 (Homo sapiens, UniProt P09874); experiment: PARP trapping assay (chromatin-bound PARP1); type: cell-based; conditions: BR cells, 10 μM PD173074, 100 nM talazoparib, MMS
T2 construct: endogenous in cells; host or cells: SUM149-derived talazoparib-resistant (BR) cells

p-Y158 PARP1 = experiment: Western blot of Y158-phosphorylated PARP1 in BR cells; type: cell-based
Text: FIGS. 3A-3E: FGFR3 mediates PARP inhibitor resistance by phosphorylating PARP1 at Y158 residue. (FIG. 3A) Proximity ligation assay (PLA) signals of FGFR3 and PARP1 (red), phalloidin (green), and DNA (blue) were merged in representative images of the treatment indicated (MMS, methyl methanesulfonate; Tala, talazoparib; PD, PD173074; BR, SUM149-derived talazoparib-resistant cells). Mean ±95% confidence interval PLA signals in each cell nucleus are shown in the histograms (n >100). *p <0.05; ***p <0.001; n.s., not significant. (FIG. 3B) Cell survival of BR cells with PARP1 knockdown expressing hemagglutinin-tagged vector control (Neo), wild-type PARP1 (WT), or PARP1^Y158F (Y158F) mutant in response to talazoparib, measured by MTT assay (mean ±standard deviation; n >3). (FIG. 3C) BR# 17 cells were treated with MMS, talazoparib, and PD173074 as indicated for Western blot analysis. (FIG. 3D) Combination index (CI) of talazoparib and PD173074 in BR# 17 cells expressing PARP1^WT or PARP1^Y158F measured by MTT assay. (FIG. 3E) Cells were harvested at different time points after 40 minutes of treatment with talazoparib and MMS. […]
The precipitated protein complex was then washed and subjected to Western blot analysis performed as described previously (Chen, et al., 2019). Signals were detected using the ImageQuant 4000 system (GE Healthcare) and quantified using Image Studio Lite.

BR# 09 cells = experiment: BR# 09 orthotopic xenograft mouse model; type: in vivo, mice; conditions: for tumor growth: BR# 09 model, oral gavage daily, olaparib 40, AZD4547 8, talazoparib 0.25, PD173074 15 mg/kg per day; for talazoparib-induced FGFR phosphorylation in tumors: 3 days
Experimental: as §1

[3] = test system: SUM149-derived talazoparib-resistant (BR) cells; experiment: MTT assay, cell survival; type: cell-based; conditions: for cross-resistance of BR cells to PARPi: talazoparib-resistant BR cells, MTT assay
Experimental: (§2) Cells were seeded at a concentration of 1,000 cells/well in a 96-well plate and cultured overnight before treatments with inhibitors. Inhibitor-containing media was refreshed every 3 days for a 6-day treatment schedule. Cells were incubated with 0.5 mg/ml thiazolyl blue tetrazolium bromide (Sigma-Aldrich) for 2 hours, and formazan crystals were dissolved using DMSO. Optical density at 565 nm was measured and survival percentages were calculated by normalizing the optical density value of each treatment group to that of the control group, treated with DMSO only. Half-maximal inhibitory concentrations of inhibitors were calculated using the standard curve interpolate function in GraphPad Prism 8.
For Western blot signal quantification, signal intensities were analyzed using Image Studio Lite (version 5.2; LI-COR Biosciences). Signals of PARP1, PARylation, FGFR3, and phosphorylated FGFR were first normalized to house-keeping proteins (tubulin, actin, or GAPDH) of each sample before being normalized to the control groups. Every independent experiment repeat was quantified individually. Fold changes in Western blot signals were analyzed by a nonparametric Friedman test using the GraphPad Prism 8.0 software. A p value of less than 0.05 was considered statistically significant: *p <0.05; **p <0.002; ***p <0.001. Combination index experiments were designed according to the Chou-Talalay method^39, and results were calculated using Compusyn software.

HCC1806-BR cells = experiment: MTT assay, survival of HCC1806-BR and HCC1806 parental cells; type: cell-based; conditions: 6 days of PARPi
Experimental: FIGS. 7A-7B. Activation of FGFR3 in HCC1806-BR cells. […] HCC1806-BR cells were developed by treating HCC1806 cells with […] talazoparib continuously for 9 months. Survival of HCC1806-BR and HCC1806 parental cells in response to talazoparib, olaparib, and rucaparib was measured by exposing cells to various concentrations of the indicated PARPi for 6 days before performing the MTT assay. (FIG. 7B) Antibody arrays of receptor tyrosine kinase activation in HCC1806 parental cells and HCC1806-BR cells. Cells were treated with either dimethyl sulfoxide (DMSO) or talazoparib overnight before being harvested for RTK antibody array analysis. PBS, phosphate-buffered saline.
as §2

[4] = test system: SUM149-derived talazoparib-resistant (BR) cells; experiment: Colony formation assay; type: cell-based; conditions: colony formation assays; BR cells vs SUM149 parental cells
Experimental: SUM149 cells (600 cells/well), BR# 09 cells (800 cells/well), and BR# 17 cells (1,000 cells/well) were seeded into a 12-well plate 18 hours before treatments. Inhibitor-containing media was refreshed every 2 days. Cells were fixed using 4% paraformaldehyde after 10-14 days of treatment. Colonies were stained with 0.5% crystal violet before plates were imaged, and colony number was quantified using the Celigo imaging cytometer (Nexcelom Bioscience). Cell survival rate was calculated by normalizing the number of colonies in each well to that of the vehicle-treated well on the same culture plate.

[5] = biological target: His-tagged PARP1 recombinant protein (UniProt P09874)
Chain of His-tagged PARP1 recombinant protein (P09874 whole entry, looked up): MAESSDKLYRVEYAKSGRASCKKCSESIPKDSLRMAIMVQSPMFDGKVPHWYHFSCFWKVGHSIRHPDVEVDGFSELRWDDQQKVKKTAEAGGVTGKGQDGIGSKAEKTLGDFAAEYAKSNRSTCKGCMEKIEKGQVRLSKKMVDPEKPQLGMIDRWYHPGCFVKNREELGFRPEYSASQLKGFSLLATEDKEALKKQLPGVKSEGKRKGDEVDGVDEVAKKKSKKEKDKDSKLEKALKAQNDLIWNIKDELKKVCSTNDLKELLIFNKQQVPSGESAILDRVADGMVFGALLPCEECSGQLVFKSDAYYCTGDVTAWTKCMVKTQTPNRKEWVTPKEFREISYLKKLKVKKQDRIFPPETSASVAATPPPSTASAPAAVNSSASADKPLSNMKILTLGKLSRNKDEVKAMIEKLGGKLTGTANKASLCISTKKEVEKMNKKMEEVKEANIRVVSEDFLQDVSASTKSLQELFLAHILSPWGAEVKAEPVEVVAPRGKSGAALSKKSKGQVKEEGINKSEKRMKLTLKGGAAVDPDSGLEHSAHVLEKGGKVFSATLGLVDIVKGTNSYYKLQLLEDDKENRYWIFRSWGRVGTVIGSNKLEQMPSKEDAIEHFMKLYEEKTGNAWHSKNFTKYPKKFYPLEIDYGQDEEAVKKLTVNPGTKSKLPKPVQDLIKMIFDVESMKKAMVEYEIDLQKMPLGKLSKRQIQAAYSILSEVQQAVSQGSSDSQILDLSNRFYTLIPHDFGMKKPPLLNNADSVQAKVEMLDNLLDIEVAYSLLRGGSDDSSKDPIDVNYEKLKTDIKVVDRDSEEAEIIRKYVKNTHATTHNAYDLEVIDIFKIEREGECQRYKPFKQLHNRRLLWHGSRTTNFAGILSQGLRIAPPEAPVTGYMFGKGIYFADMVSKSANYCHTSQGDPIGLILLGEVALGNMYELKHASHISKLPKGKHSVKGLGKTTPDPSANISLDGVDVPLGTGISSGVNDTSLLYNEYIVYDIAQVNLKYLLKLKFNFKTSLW

T1 sequence (P22607 23-806): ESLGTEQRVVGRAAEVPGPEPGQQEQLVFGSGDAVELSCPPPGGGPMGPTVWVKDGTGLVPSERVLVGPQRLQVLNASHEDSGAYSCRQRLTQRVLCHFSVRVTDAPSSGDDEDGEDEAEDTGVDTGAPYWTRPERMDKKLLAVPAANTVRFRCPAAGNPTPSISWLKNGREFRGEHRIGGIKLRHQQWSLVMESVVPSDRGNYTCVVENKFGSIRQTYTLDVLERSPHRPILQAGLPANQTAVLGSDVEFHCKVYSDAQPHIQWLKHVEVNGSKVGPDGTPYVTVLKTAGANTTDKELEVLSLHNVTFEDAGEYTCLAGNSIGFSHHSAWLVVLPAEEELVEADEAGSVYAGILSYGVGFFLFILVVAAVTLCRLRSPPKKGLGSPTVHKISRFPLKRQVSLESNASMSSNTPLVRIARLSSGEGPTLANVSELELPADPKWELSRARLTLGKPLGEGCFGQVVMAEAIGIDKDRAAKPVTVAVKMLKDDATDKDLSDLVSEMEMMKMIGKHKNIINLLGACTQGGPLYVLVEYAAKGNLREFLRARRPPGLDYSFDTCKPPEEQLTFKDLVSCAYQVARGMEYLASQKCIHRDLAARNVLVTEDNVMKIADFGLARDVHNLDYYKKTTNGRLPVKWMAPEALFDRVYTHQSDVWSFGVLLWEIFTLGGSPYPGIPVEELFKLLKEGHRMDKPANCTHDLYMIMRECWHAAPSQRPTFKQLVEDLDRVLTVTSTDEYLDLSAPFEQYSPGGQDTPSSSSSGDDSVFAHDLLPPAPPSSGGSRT
T2 sequence (P09874 whole entry): as the sequence (P09874 whole entry, looked up) above

Compound	tumor growth (BR# 17 cells [1])	tumor growth (BR# 09 cells)	cross-resistance of BR cells to PARPi [3]	resistance of HCC1806-BR cells compared with HCC1806 parental cells (HCC1806-BR cells)	also measured
CCN(CC)CCCCNc1ncc2cc(-c3cc(OC)cc(OC)c3)c(NC(=O)NC(C)(C)C)nc2n1 [PD173074]	did not inhibit tumor growth	did not inhibit tumor growth	–	–	FGFR phosphorylation in response to MMS and talazoparib (FGFR3): inhibited; yH2AX foci at 8 hours compared with 4 hours (BR# 17 cells [2]): significantly decreased; talazoparib-induced PARP1 trapping (PARP1): prolong; p-Y158 PARP1 level (p-Y158 PARP1): diminished; body weight (BR# 09 cells; BR xenograft mouse models, PD173074 15 mg/kg per day, alone or with talazoparib 0.25 mg/kg per day, long-term treatment): no loss of body weight; talazoparib-induced FGFR phosphorylation in tumors (BR# 09 cells; PD173074 10 mg/kg per day): inhibited; talazoparib-induced FGFR phosphorylation in tumors (BR# 09 cells; PD173074 20 mg/kg per day): less than the basal levels
O=C(c1cc(Cc2n[nH]c(=O)c3ccccc23)ccc1F)N1CCN(C(=O)C2CC2)CC1 [olaparib]	did not inhibit tumor growth	did not inhibit tumor growth	cross-resistance	more resistant	–
CNCc1ccc(-c2[nH]c3cc(F)cc4c3c2CCNC4=O)cc1 [rucaparib]	–	–	cross-resistance	more resistant	–
Cn1ncnc1[C@H]1c2n[nH]c(=O)c3cc(F)cc(c23)N[C@@H]1c1ccc(F)cc1 [talazoparib]	did not inhibit tumor growth	did not inhibit tumor growth	–	more resistant	half-maximal inhibitory concentration in BR cells relative to parental cells ([3]; MTT assays, BR cells vs SUM149 parental cells): more than 100 fold; increase in resistance to talazoparib on PARP1 knockdown ([3]; SUM149, BR# 09 and BR# 17 cells with shPARP1 vs non-targeting shRNA control): ≥ 10 fold; half-maximal inhibitory concentration in BR cells relative to parental cells [4]: more than 100 fold; yH2AX foci at 8 hours compared with 4 hours (BR# 17 cells [2]): significantly decreased; FGFR3 phosphorylation in tumors (BR# 09 cells; tumors harvested after 3 days of treatment, talazoparib alone): induced
C[C@]1(c2nc3c(C(N)=O)cccc3[nH]2)CCCN1 [veliparib]	–	–	cross-resistance	–	–
AZD4547	inhibited tumor growth	not	–	–	–
activated FGFR kinase domain	–	–	–	–	tyrosine phosphorylation in in vitro kinase assay (Western blot with anti-phospho-tyrosine antibodies; mass spectrum analysis) [5]: FGFR can phosphorylate PARP1 at tyrosine (Y)158 and Y176 amino acids
